Measured values reported in PubChem BioAssay (NCI).
Values joined by “and” are separate entries in the source; they are usually repeats but may differ in a detail not shown here. Equal values may be shown once.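 The compound was tested at five concentrations on cells cultured in 96-well plates, with a 48-hour exposure period. Here, GI50 denotes the concentration required for 50% inhibition of growth. TGI marks complete inhibition of growth.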

Legend:
Assay in all cases: NCI anticancer screen, dose series, 48 h
SF-268 CNS = test system: SF-268 CNS
RPMI-8226 leukemia = test system: RPMI-8226 leukemia
U251 CNS = test system: U251 CNS
NCI-H23 lung = test system: NCI-H23 lung
SNB-75 CNS = test system: SNB-75 CNS
UACC-257 melanoma = test system: UACC-257 melanoma
OVCAR-5 ovarian = test system: OVCAR-5 ovarian
SNB-19 CNS = test system: SNB-19 CNS
M14 melanoma = test system: M14 melanoma
NCI/ADR-RES ovarian = test system: NCI/ADR-RES ovarian

Structure (SMILES)	TGI (SF-268 CNS) [µM]	TGI (RPMI-8226 leukemia) [µM]	TGI (U251 CNS) [µM]	TGI (NCI-H23 lung) [µM]	TGI (SNB-75 CNS) [µM]	TGI (UACC-257 melanoma) [µM]	TGI (OVCAR-5 ovarian) [µM]	TGI (SNB-19 CNS) [µM]	TGI (M14 melanoma) [µM]	TGI (NCI/ADR-RES ovarian) [µM]	GI50 (RPMI-8226 leukemia)	GI50 (NCI/ADR-RES ovarian)	GI50 (NCI-H23 lung)	GI50 (SNB-75 CNS)	GI50 (UACC-257 melanoma)
c1ccc2c(c1)CCCC/C2=N/OCC1CO1 (stereo not given)	> 100	72.9	> 100	> 100	> 100	> 100	–	–	–	–	–	–	–	–	–
COc1ccc(C2c3cc4c(cc3OC(NCCO)C2C)OCO4)cc1 (stereo not given)	72.6	55.3	54.9	> 100	69.5	72.4	> 100	> 100	84.6	–	–	–	–	–	–
Nc1ccccc1C(=O)C(Br)C(Br)c1ccc2c(c1)OCO2 (stereo not given)	91.5	> 100	49.6	47.4	60.9	44.9	–	89	41.3	–	–	–	–	–	–
COc1cccc2c1OCC1Cc3ccccc3OC21 (stereo not given)	> 100	> 100	> 100	> 100	–	65.3	> 100	–	> 100	> 100	–	–	–	–	–
CN1N=C(c2ccncc2)OC1c1ccccc1F (stereo not given)	> 100	> 100	> 100	> 100	–	–	> 100	> 100	> 100	> 100	–	–	–	–	–
Cc1cc(C)nc(NS(=O)(=O)c2ccc(NC(=O)c3cccc4c(NNc5ccc(S(=O)(=O)N=C(N)N)cc5)c5ccccc5nc34)cc2)n1	> 50	> 50	> 50	> 50	> 50	> 50	–	> 50	> 50	> 50	–	–	–	–	–
O=C1C2=C(CCC2)Nc2cccc3ncn1c23	> 100	> 100	> 100	> 100	–	> 100	> 100	> 100	–	–	–	–	–	–	–
O=C(NN1C(=O)CSC1c1cccc(F)c1)c1ccncc1 (stereo not given)	> 100	> 100	> 100	> 100	> 100	> 100	> 100	> 100	> 100	–	–	–	–	–	–
C=CCN1C(=O)/C(=C/c2ccc(C)cc2)N=C1SC1OC(COC(C)=O)C(OC(C)=O)C(OC(C)=O)C1OC(C)=O (stereo not given)	–	> 100	> 100	> 100	> 100	> 100	> 100	> 100	> 100	> 100	> 100 µM and 20.2 µM	> 100 µM and 32.5 µM	> 100 µM and 27.1 µM	3.7 µM and 20.2 µM	> 73 µM and 32.9 µM
CC1(C)OC2COC3([C@@H]4OC(C)(C)O[C@@H]4CO)OC(C)(C)OC3C2O1 (stereo not given in full)	–	> 100	> 100	> 100	> 100	> 100	> 100	> 100	> 100	> 100	–	–	–	–	–
Cc1ccc2oc(=O)c(-c3ccccc3)nc2c1	> 100	> 100	–	90.7	> 100	> 100	99.8	> 100	> 100	–	–	–	–	–	–
